Laboratory results reported in patent US7563567B1, “Use of ECIST microarrays in an integrated method for assessing DNA methylation, gene expression and histone acetylation” (The Curators of the Univeristy of Missouri of Columbia, priority 2002, dated 2009).

Assays:
BIK gene = details: cited from earlier work
CP70 cells [1] = assay: Semi-quantitative RT-PCR; assay type: cell-based, human; details: for HSPA.2 expression (RT-PCR): FIG. 21 row 1, no expression in untreated cells; for expression of eight Group 2 loci (RT-PCR): FIGS. 22A, 22B, unmethylated loci
CP70 cells [2] = assay: Expression microarray analysis (ECIST panel, triple analysis); assay type: cell-based, human; details: for number of Group 1 (hypermethylated) loci with increased expression: FIG. 20D; for percent of ECIST loci up-regulated 4-fold or greater / total number of ECISTs up-regulated 4-fold or greater: of 1507 loci, DAC 0.5 μM 4 days, TSA 0.5 μM 12 h
MDA-MB-231 cells [3] = assay: RT-PCR verification of ECIST loci responsive to demethylation; assay type: cell-based, human
MDA-MB-231 cells [4] = assay: ECIST expression microarray, deoxyC-treated vs untreated cells; assay type: cell-based, human
[5] = 0.75 μM, 4 days, among 1,162 ECISTs
[6] = average normalized ratio, 0.75 μM treated vs untreated

## CC(/C=C/C(=O)NO)=C\[C@@H](C)C(=O)c1ccc(N(C)C)cc1 [TSA, trichostatin A]
BIK gene; Suzuki et al., cell line not stated
  induction of the BIK gene: induced in a methylation-independent manner
CP70 cells [1]
  HSPA.2 expression (RT-PCR): remained unchanged
  expression of eight Group 2 loci (RT-PCR): Increased expression of some of these loci
CP70 cells [2]
  expression of Group 2a genes (unmethylated promoters): increased expression
  number of Group 1 (hypermethylated) loci with increased expression: No significant change in expression
  percent of ECIST loci up-regulated 4-fold or greater: 1.1%
  total number of ECISTs up-regulated 4-fold or greater: 17

## Nc1ncn([C@H]2C[C@H](O)[C@@H](CO)O2)c(=O)n1 [DAC, 5-aza-2′-deoxycytidine]
BIK gene; human lung cancer cell line, after treatment
  time by which BIK expression returned to control levels: ≤ 72 h
BIK gene; human lung cancer cell line
  induction of the apoptosis promoting factor BIK: early induction
MDA-MB-231 cells [3]; 0.75 μM treated vs untreated, FIG. 17A
  expression of CYP27B1, HSPA2, TTF-1, FLJ10466 and EST183864 by RT-PCR: reactivated
MDA-MB-231 cells [3]; treated relative to untreated cells, loci not hypermethylated, FIG. 17B
  expression levels of CpG12F10, MP2A3 and MP3D7 by RT-PCR: increased
CP70 cells [1]
  HSPA.2 expression (RT-PCR): increased
  expression of eight Group 2 loci (RT-PCR): Increased expression of some of these loci
CP70 cells [2]
  expression of Group 2a genes (unmethylated promoters): not by DAC alone
  number of Group 1 (hypermethylated) loci with increased expression: 11
  percent of ECIST loci up-regulated 4-fold or greater: 1.9%
  total number of ECISTs up-regulated 4-fold or greater: 29
MDA-MB-231 cells [4]; 0.75 μM
  number of hypermethylated ECIST loci whose transcripts can be reactivated: 30
  number of hypermethylated ECIST loci whose transcripts could not be reactivated (or up-regulated): 189
  number of loci up-regulated in response to demethylation but not associated with CpG island hypermethylation: 96
MDA-MB-231 cells [4]; [5]
  down-regulated ECIST loci (SAM analysis): No down-regulated loci were identified
  number of statistically significant up-regulated ECIST loci (SAM, false-positive rate 1%): 126
MDA-MB-231 cells [4]; [6]
  Cy5/Cy3 Expression, CpG5B6 (CYP27B1): 2.7
  Cy5/Cy3 Expression, CpG6B6 (dJ631M13.5): 2.6
  Cy5/Cy3 Expression, CpG15E2: 3.3
  Cy5/Cy3 Expression, CpG21G11: 2.9
  Cy5/Cy3 Expression, CpG32H12: 2.6
  Cy5/Cy3 Expression, CpG65A1 (TNS): 4.3
  Cy5/Cy3 Expression, CpG65C10 (TBX4): 4.7
  Cy5/Cy3 Expression, DL2F9 (ERCC-1): 3.8
  Cy5/Cy3 Expression, MP1F6 (LOC84661): 2.1
  Cy5/Cy3 Expression, MP2F1 (H4FJ): 3.2
  Cy5/Cy3 Expression, MP2F10: 3.2
  Cy5/Cy3 Expression, PY1H8 (PSMB4): 2.1
  Cy5/Cy3 Expression, PY2F1 (FLJ10466): 3.2
  Cy5/Cy3 Expression, PY3D3 (EST AI023535): 2.4
  Cy5/Cy3 Expression, PY3D6 (EST BI518683): 2.0
  Cy5/Cy3 Expression, PY3F2 (HSRN04): 2.0
  Cy5/Cy3 Expression, SC2C3 (EST BE502068): 4.9
  Cy5/Cy3 Expression, SC8F2 (RPS16): 2.0
  Cy5/Cy3 Expression, SC12A2 (SAAS): 2.2
  Cy5/Cy3 Expression, SC13D6 (EST183864): 2.1
  Cy5/Cy3 Expression, SC15E7: 4.0
  Cy5/Cy3 Expression, SC15H6 (H2BFR): 2.6
  Cy5/Cy3 Expression, SC19F1 (EST BE838797): 2.7
  Cy5/Cy3 Expression, SC20G3 (HOXD3): 2.3
  Cy5/Cy3 Expression, SC21A8 (U3B2): 3.2
  Cy5/Cy3 Expression, SC21G11 (HSPA2): 5.4
  Cy5/Cy3 Expression, SC40C8 (H2BFG): 2.7
  Cy5/Cy3 Expression, SC77F6 (TTF-1): 3.8
  Cy5/Cy3 Expression, SC87E7 (EST AA365852): 2.4
  Cy5/Cy3 Expression, SC89F2 (HAGE): 14.6
